Data published in ChEMBL document CHEMBL3885881, “DrugMatrix”.

Species: Rattus norvegicus
Assay: DrugMatrix - Regimen: Daily Repeat
Format: toxicity, organism-based, Sprague-Dawley
Parameters: regimen Daily Repeat, gender Male, age 6-8 weeks
Conditions: in vivo, po, route oral GAVAGE, vehicle .5 % CMC; for BASOPHIL / EOSINOPHIL / ERYTHROCYTE COUNT / HEMATOCRIT / HEMOGLOBIN / LEUKOCYTE COUNT / LYMPHOCYTE / MEAN CORPUSCULAR HEMOGLOBIN / MEAN CORPUSCULAR HEMOGLOBIN CONCENTRATION / MEAN CORPUSCULAR VOLUME / MONOCYTE / NEUTROPHIL / PLATELET COUNT: tissue Blood; for ALANINE AMINOTRANSFERASE / ALBUMIN / ALKALINE PHOSPHATASE / ASPARTATE AMINOTRANSFERASE / BLOOD UREA NITROGEN / CARBON DIOXIDE / CHLORIDE / CHOLESTEROL / CREATINE PHOSPHOKINASE / CREATININE / GLUCOSE / LACTATE DEHYDROGENASE / LIPASE / PHOSPHORUS / POTASSIUM / SODIUM / TOTAL BILIRUBIN / TOTAL PROTEIN / URIC ACID: tissue Plasma
[1] = 0 mg/kg, 72 h, dose level Control, time 3 day
[2] = 0 mg/kg, 120 h, dose level Control, time 5 day
[3] = 0 mg/kg, […], dose level Control, time 14 day
[4] = 200 mg/kg, 72 h, dose level High, time 3 day
[5] = 200 mg/kg, 120 h, dose level High, time 5 day

Nc1cccc(Cl)c1 [3-CHLOROANILINE]
BASOPHIL [1]: 0.62% | EOSINOPHIL [1]: 0.52% | ERYTHROCYTE COUNT [1]: 6.33 x10E6/uL | HEMATOCRIT [1]: 41.88% | HEMOGLOBIN [1]: 13.52 G/DL | LEUKOCYTE COUNT [1]: 11.39 x10E3/uL | LYMPHOCYTE [1]: 86.18% | MEAN CORPUSCULAR HEMOGLOBIN [1]: 21.35 pg | MEAN CORPUSCULAR HEMOGLOBIN CONCENTRATION [1]: 32.23 G/DL | MEAN CORPUSCULAR VOLUME [1]: 66.25 fL | MONOCYTE [1]: 1.93% | NEUTROPHIL [1]: 9.1% | PLATELET COUNT [1]: 1204.5 x10E3/uL | ALANINE AMINOTRANSFERASE [1]: 43 u/L | ALBUMIN [1]: 4.08 G/DL | ALKALINE PHOSPHATASE [1]: 426.33 u/L | ASPARTATE AMINOTRANSFERASE [1]: 72.5 u/L | BLOOD UREA NITROGEN [1]: 16.67 mg/dL | CARBON DIOXIDE [1]: 28.33 mmol/L | CHLORIDE [1]: 103.5 MEQ/L | CHOLESTEROL [1]: 78.83 mg/dL | CREATINE PHOSPHOKINASE [1]: 325.67 u/L | CREATININE [1]: 0.48 mg/dL | GLUCOSE [1]: 171.67 mg/dL | LACTATE DEHYDROGENASE [1]: 107.33 u/L | LIPASE [1]: 11.83 u/L | PHOSPHORUS [1]: 12.55 mg/dL | POTASSIUM [1]: 6.57 MEQ/L | SODIUM [1]: 145.67 MEQ/L | TOTAL BILIRUBIN [1]: 0.42 mg/dL | TOTAL PROTEIN [1]: 6.1 G/DL | URIC ACID [1]: 1.57 mg/dL | BASOPHIL [2]: 0.48% | EOSINOPHIL [2]: 0.67% | ERYTHROCYTE COUNT [2]: 6.69 x10E6/uL | HEMATOCRIT [2]: 44.17% | HEMOGLOBIN [2]: 13.78 G/DL | LEUKOCYTE COUNT [2]: 7.86 x10E3/uL | LYMPHOCYTE [2]: 85.9% | MEAN CORPUSCULAR HEMOGLOBIN [2]: 20.6 pg | MEAN CORPUSCULAR HEMOGLOBIN CONCENTRATION [2]: 31.25 G/DL | MEAN CORPUSCULAR VOLUME [2]: 65.9 fL | MONOCYTE [2]: 3.27% | NEUTROPHIL [2]: 8.67% | PLATELET COUNT [2]: 1182.33 x10E3/uL | ALANINE AMINOTRANSFERASE [2]: 37.5 u/L | ALBUMIN [2]: 4 G/DL | ALKALINE PHOSPHATASE [2]: 348.17 u/L | ASPARTATE AMINOTRANSFERASE [2]: 71.67 u/L | BLOOD UREA NITROGEN [2]: 13 mg/dL | CARBON DIOXIDE [2]: 27 mmol/L | CHLORIDE [2]: 104.67 MEQ/L | CHOLESTEROL [2]: 73.33 mg/dL | CREATINE PHOSPHOKINASE [2]: 211.33 u/L | CREATININE [2]: 0.23 mg/dL | GLUCOSE [2]: 155 mg/dL | LACTATE DEHYDROGENASE [2]: 133.83 u/L | LIPASE [2]: 11.17 u/L | PHOSPHORUS [2]: 14.53 mg/dL | POTASSIUM [2]: 6.65 MEQ/L | SODIUM [2]: 148.17 MEQ/L | TOTAL BILIRUBIN [2]: 0.28 mg/dL | TOTAL PROTEIN [2]: 6.22 G/DL | URIC ACID [2]: 1.57 mg/dL | BASOPHIL [3]: 0.97% | EOSINOPHIL [3]: 0.8% | ERYTHROCYTE COUNT [3]: 7.02 x10E6/uL | HEMATOCRIT [3]: 44.43% | HEMOGLOBIN [3]: 14.58 G/DL | LEUKOCYTE COUNT [3]: 16.49 x10E3/uL | LYMPHOCYTE [3]: 79.03% | MEAN CORPUSCULAR HEMOGLOBIN [3]: 20.85 pg | MEAN CORPUSCULAR HEMOGLOBIN CONCENTRATION [3]: 32.78 G/DL | MEAN CORPUSCULAR VOLUME [3]: 63.57 fL | MONOCYTE [3]: 1.9% | NEUTROPHIL [3]: 15.18% | PLATELET COUNT [3]: 1184.33 x10E3/uL | ALANINE AMINOTRANSFERASE [3]: 43 u/L | ALBUMIN [3]: 4.25 G/DL | ALKALINE PHOSPHATASE [3]: 409.67 u/L | ASPARTATE AMINOTRANSFERASE [3]: 84.17 u/L | BLOOD UREA NITROGEN [3]: 16 mg/dL | CARBON DIOXIDE [3]: 35.17 mmol/L | CHLORIDE [3]: 99.83 MEQ/L | CHOLESTEROL [3]: 68.67 mg/dL | CREATINE PHOSPHOKINASE [3]: 384.17 u/L | CREATININE [3]: 0.43 mg/dL | GLUCOSE [3]: 160 mg/dL | LACTATE DEHYDROGENASE [3]: 115.33 u/L | LIPASE [3]: 17.33 u/L | PHOSPHORUS [3]: 10.68 mg/dL | POTASSIUM [3]: 6.48 MEQ/L | SODIUM [3]: 148.17 MEQ/L | TOTAL BILIRUBIN [3]: 0.45 mg/dL | TOTAL PROTEIN [3]: 6.57 G/DL | URIC ACID [3]: 1.78 mg/dL | BASOPHIL [4]: 0.8% | EOSINOPHIL [4]: 0.35% | ERYTHROCYTE COUNT [4]: 6.14 x10E6/uL | HEMATOCRIT [4]: 40.2% | HEMOGLOBIN [4]: 12.45 G/DL | LEUKOCYTE COUNT [4]: 16.22 x10E3/uL | LYMPHOCYTE [4]: 78.8% | MEAN CORPUSCULAR HEMOGLOBIN [4]: 20.3 pg | MEAN CORPUSCULAR HEMOGLOBIN CONCENTRATION [4]: 31 G/DL | MEAN CORPUSCULAR VOLUME [4]: 65.45 fL | MONOCYTE [4]: 2.65% | NEUTROPHIL [4]: 16.45% | PLATELET COUNT [4]: 1382 x10E3/uL | ALANINE AMINOTRANSFERASE [4]: 38.5 u/L | ALBUMIN [4]: 4.1 G/DL | ALKALINE PHOSPHATASE [4]: 564 u/L | ASPARTATE AMINOTRANSFERASE [4]: 78.5 u/L | BLOOD UREA NITROGEN [4]: 14 mg/dL | CARBON DIOXIDE [4]: 30.5 mmol/L | CHLORIDE [4]: 106 MEQ/L | CHOLESTEROL [4]: 63.5 mg/dL | CREATINE PHOSPHOKINASE [4]: 161 u/L | CREATININE [4]: 0.4 mg/dL | GLUCOSE [4]: 168.5 mg/dL | LACTATE DEHYDROGENASE [4]: 65.5 u/L | LIPASE [4]: 14.5 u/L | PHOSPHORUS [4]: 13.95 mg/dL | POTASSIUM [4]: 6.9 MEQ/L | SODIUM [4]: 148 MEQ/L | TOTAL BILIRUBIN [4]: 0.5 mg/dL | TOTAL PROTEIN [4]: 6.1 G/DL | URIC ACID [4]: 1.65 mg/dL | BASOPHIL [5]: 0.4% | EOSINOPHIL [5]: 0.7% | ERYTHROCYTE COUNT [5]: 5.95 x10E6/uL | HEMATOCRIT [5]: 43% | HEMOGLOBIN [5]: 13 G/DL | LEUKOCYTE COUNT [5]: 15.09 x10E3/uL | LYMPHOCYTE [5]: 67.85% | MEAN CORPUSCULAR HEMOGLOBIN [5]: 21.85 pg | MEAN CORPUSCULAR HEMOGLOBIN CONCENTRATION [5]: 30.25 G/DL | MEAN CORPUSCULAR VOLUME [5]: 72.25 fL | MONOCYTE [5]: 4.1% | NEUTROPHIL [5]: 26.4% | PLATELET COUNT [5]: 1312 x10E3/uL | ALANINE AMINOTRANSFERASE [5]: 35 u/L | ALBUMIN [5]: 4.1 G/DL | ALKALINE PHOSPHATASE [5]: 356 u/L | ASPARTATE AMINOTRANSFERASE [5]: 72.5 u/L | BLOOD UREA NITROGEN [5]: 12 mg/dL | CARBON DIOXIDE [5]: 29.5 mmol/L | CHLORIDE [5]: 103.5 MEQ/L | CHOLESTEROL [5]: 69.5 mg/dL | CREATINE PHOSPHOKINASE [5]: 182 u/L | CREATININE [5]: 0.25 mg/dL | GLUCOSE [5]: 150.5 mg/dL | LACTATE DEHYDROGENASE [5]: 149 u/L | LIPASE [5]: 9 u/L | PHOSPHORUS [5]: 13.05 mg/dL | POTASSIUM [5]: 6.45 MEQ/L | SODIUM [5]: 148.5 MEQ/L | TOTAL BILIRUBIN [5]: 0.55 mg/dL | TOTAL PROTEIN [5]: 6.3 G/DL | URIC ACID [5]: 1.75 mg/dL
